Settings: 343.15 K, Liquid, Vibrating tube method

CCCCC(=O)OCC(COC(=O)CCCC)(COC(=O)CCCC)COC(=O)CCCC [pentaerythritol tetrapentanoate]
Settings	mass density [kg/m3]
12882 kPa	988.2
12909 kPa	988.3
12937 kPa	988.2
12964 kPa	988.3
12996 kPa	988.3
13022 kPa	988.5
13049 kPa	988.3
13082 kPa	988.4
13109 kPa	988.3
13137 kPa	988.5
13164 kPa	988.4
13198 kPa	988.5
13226 kPa	988.4
13254 kPa	988.4
13287 kPa	988.5
13318 kPa	988.6
13346 kPa	988.6
13374 kPa	988.6
13408 kPa	988.7
13437 kPa	988.6
13466 kPa	988.7
13495 kPa	988.7
13530 kPa	988.7
13559 kPa	988.7
13594 kPa	988.8
13624 kPa	988.8
13653 kPa	988.9
13683 kPa	988.8
13719 kPa	988.9
13750 kPa	989
13780 kPa	989
13816 kPa	989
13847 kPa	989
13877 kPa	989.1
13914 kPa	988.9
13945 kPa	989.2
13976 kPa	989
14014 kPa	989.2
14045 kPa	989.2
14077 kPa	989.2
14110 kPa	989.1
14149 kPa	989.1
14181 kPa	989.1
14213 kPa	989.3
14252 kPa	989.2
14284 kPa	989.4
14318 kPa	989.2
14350 kPa	989.3
14390 kPa	989.6
14423 kPa	989.4
14457 kPa	989.4
14497 kPa	989.5
14531 kPa	989.5
14566 kPa	989.5
14607 kPa	989.5
14641 kPa	989.7
14676 kPa	989.6
14717 kPa	989.7
14752 kPa	989.7
14787 kPa	989.7
14829 kPa	989.7
14864 kPa	989.6
14900 kPa	989.8
14943 kPa	989.7
14979 kPa	989.8
15016 kPa	989.9
15053 kPa	989.8
15097 kPa	989.9
15134 kPa	989.8
15171 kPa	989.9
15214 kPa	989.9
15252 kPa	990.1
15289 kPa	989.9
15334 kPa	990
15372 kPa	990
15411 kPa	990.2
15458 kPa	990.1
15497 kPa	990.1
15537 kPa	990.3
15578 kPa	990.2
15628 kPa	990.3
15668 kPa	990.3
15704 kPa	990.5
15742 kPa	990.3
15774 kPa	990.4
15806 kPa	990.4
15845 kPa	990.4
15877 kPa	990.6
15910 kPa	990.4
15950 kPa	990.4
15982 kPa	990.5
16016 kPa	990.5
16052 kPa	990.6
16091 kPa	990.6
16125 kPa	990.7
16159 kPa	990.6
16199 kPa	990.8
16233 kPa	990.7
16268 kPa	990.8
16302 kPa	990.8
16344 kPa	990.7
16378 kPa	990.9
16413 kPa	990.8
16456 kPa	990.9
16493 kPa	991
16530 kPa	991
16566 kPa	991
16602 kPa	991
16644 kPa	990.9
16680 kPa	991
16724 kPa	991.1
16760 kPa	991.1
16796 kPa	991.1
16841 kPa	991.2
16878 kPa	991.1
16915 kPa	991.1
16959 kPa	991.1
16997 kPa	991.2
17035 kPa	991.2
17081 kPa	991.3
17119 kPa	991.3
17158 kPa	991.3
17204 kPa	991.4
17243 kPa	991.4
17282 kPa	991.4
17330 kPa	991.6
17371 kPa	991.5
17412 kPa	991.6
17462 kPa	991.6
17500 kPa	991.5
17533 kPa	991.6
17569 kPa	991.6
17600 kPa	991.6
17630 kPa	991.5
17666 kPa	991.6
17697 kPa	991.7
17728 kPa	991.8
17765 kPa	991.9
17796 kPa	991.9
17827 kPa	991.7
17864 kPa	991.9
17896 kPa	991.9
17928 kPa	991.9
17966 kPa	991.9
17998 kPa	991.8
18030 kPa	992
18068 kPa	992
18100 kPa	992.1
18132 kPa	992
18171 kPa	991.9
18204 kPa	992.2
18236 kPa	992
18276 kPa	992.1
18309 kPa	992.1
18342 kPa	992.1
18382 kPa	992.2
18416 kPa	992.2
18450 kPa	992.1
18490 kPa	992.3
18524 kPa	992.4
18558 kPa	992.3
18600 kPa	992.4
18634 kPa	992.4
18668 kPa	992.5
18709 kPa	992.5
18744 kPa	992.5
18780 kPa	992.5
18821 kPa	992.4
18857 kPa	992.7
18892 kPa	992.5
18935 kPa	992.7
18971 kPa	992.6
19007 kPa	992.6
19052 kPa	992.7
19088 kPa	992.6
19126 kPa	992.7
19172 kPa	992.8
19211 kPa	992.9
19248 kPa	992.8
19284 kPa	992.9
19312 kPa	992.8
19340 kPa	992.9
19368 kPa	992.9
19401 kPa	992.9
19429 kPa	992.9
19458 kPa	993
19491 kPa	992.9
19520 kPa	993.1
19549 kPa	993.1
19579 kPa	993
19613 kPa	993
19638 kPa	993.1
19666 kPa	993.2
19689 kPa	993.1
19713 kPa	993
19737 kPa	993.1
19761 kPa	993.2
19789 kPa	993.2
19813 kPa	993.2
19836 kPa	993.2
19864 kPa	993.2
19888 kPa	993.3
19912 kPa	993.3
19941 kPa	993.3
19964 kPa	993.3
19988 kPa	993.4
20017 kPa	993.3
20042 kPa	993.4
20066 kPa	993.3
20095 kPa	993.4
20119 kPa	993.6
20143 kPa	993.5
20173 kPa	993.5
20197 kPa	993.5
20222 kPa	993.5
20251 kPa	993.5
20276 kPa	993.5
20301 kPa	993.6
20330 kPa	993.7
20355 kPa	993.4
20381 kPa	993.7
20410 kPa	993.7
20436 kPa	993.7
20461 kPa	993.5
20487 kPa	993.7
20517 kPa	993.6
20542 kPa	993.6
20568 kPa	993.7
20598 kPa	993.7
20629 kPa	993.8
20660 kPa	993.8
20687 kPa	993.8
20713 kPa	993.9
20740 kPa	993.9
20770 kPa	993.8
20797 kPa	993.9
20823 kPa	993.8
20854 kPa	993.9
20880 kPa	994
20907 kPa	993.9
20939 kPa	994
20965 kPa	994
20992 kPa	994.1
21020 kPa	993.9
21052 kPa	994.1
21079 kPa	994.1
21106 kPa	994.1
21254 kPa	994.2
21281 kPa	994.3
21309 kPa	994.2
21342 kPa	994.3
21370 kPa	994.3
22531 kPa	995.1
22626 kPa	995.2
22664 kPa	995
22696 kPa	995.3
23251 kPa	995.5
23324 kPa	995.7
23466 kPa	995.7
23985 kPa	996.2
24021 kPa	996
24064 kPa	996
24136 kPa	996.2
24180 kPa	996.1
24216 kPa	996.2
24253 kPa	996.2
24297 kPa	996.3
24334 kPa	996.4
24371 kPa	996.3
24415 kPa	996.2
24452 kPa	996.3
24490 kPa	996.5
24529 kPa	996.4
24574 kPa	996.5
24612 kPa	996.4
24650 kPa	996.5
24696 kPa	996.4
24734 kPa	996.4
24772 kPa	996.5
24856 kPa	996.5
24895 kPa	996.7
24934 kPa	996.7
24981 kPa	996.8
25274 kPa	996.9
25314 kPa	997
25354 kPa	996.9
25839 kPa	997.2
25895 kPa	997.4
26210 kPa	997.4
26261 kPa	997.5
26310 kPa	997.5
26350 kPa	997.5
26385 kPa	997.6
26426 kPa	997.6
26460 kPa	997.6
26502 kPa	997.8
26536 kPa	997.7
26571 kPa	997.8
26607 kPa	997.7
26649 kPa	997.7
26684 kPa	997.9
26720 kPa	997.9
26756 kPa	997.9
26800 kPa	997.9
26835 kPa	998
26871 kPa	998
26914 kPa	998
26950 kPa	998
26986 kPa	998
27029 kPa	998.1
27065 kPa	998.2
27101 kPa	998
27145 kPa	998.2
27182 kPa	998.1
27219 kPa	998.2
27256 kPa	998.2
27301 kPa	998.2
27339 kPa	998.2
27376 kPa	998.2
27421 kPa	998.2
27458 kPa	998.2
